In patent publication US12391686B2, “Compounds and uses thereof” (Foghorn Therapeutics Inc., priority 2019, dated 2025):

Biological target: T1, Nanoluciferase-BRD9 fusion protein (3×FLAG-NLuc-BRD9) in SYO-1 cells (Homo sapiens, UniProt Q9H8M2)
T1 construct: expressed in transfected cells; host or cells: SYO-1
T1 sequence (Q9H8M2 1-597): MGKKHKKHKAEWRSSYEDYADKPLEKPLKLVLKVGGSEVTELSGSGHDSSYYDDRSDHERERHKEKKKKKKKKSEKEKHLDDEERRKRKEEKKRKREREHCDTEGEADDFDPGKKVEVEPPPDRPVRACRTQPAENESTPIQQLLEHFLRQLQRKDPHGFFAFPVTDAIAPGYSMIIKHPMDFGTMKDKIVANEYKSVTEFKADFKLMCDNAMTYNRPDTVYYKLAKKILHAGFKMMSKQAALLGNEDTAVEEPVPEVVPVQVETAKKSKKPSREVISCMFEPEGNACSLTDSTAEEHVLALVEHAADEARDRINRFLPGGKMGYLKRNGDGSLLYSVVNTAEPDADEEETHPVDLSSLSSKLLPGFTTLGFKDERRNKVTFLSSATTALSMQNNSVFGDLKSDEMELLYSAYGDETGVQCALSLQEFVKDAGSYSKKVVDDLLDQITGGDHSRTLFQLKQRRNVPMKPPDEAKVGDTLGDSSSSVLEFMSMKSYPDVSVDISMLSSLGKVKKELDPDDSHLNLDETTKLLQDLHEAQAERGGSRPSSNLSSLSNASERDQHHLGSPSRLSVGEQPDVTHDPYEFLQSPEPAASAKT
Assay: SYO1 BRD9 NanoLuc Degradation Assay
Assay type: cell-based
Conditions: Table 6C; SYO-1 cells expressing 3×FLAG-NLuc-BRD9, 6 hours incubation, 1 μM top dose; read-out: SYO1 BRD9-NanoLuc degradation IC50
In short: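 NanoLuc signal, read by Nano-Glo luminescence after 6 h compound exposure, gives % inhibition against DMSO-treated cells (high control) and cells given 1 μM of a standard BRD9 degrader (low control). Test compounds ran as 10-point 3-fold series, top 1 μM final, in duplicate on SYO-1 cells stably expressing 3×FLAG-NLuc-BRD9.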

SMILES | DC50 [nM]
COc1cc(-c2cn(C)c(=O)c3cnc(C4CC4)cc23)cc(OC)c1CN1CCC2(CC1)CN(c1ccc3c(c1)C(=O)N(C1CCC(=O)NC1=O)C3=O)C2 (stereo not shown) [Compound D219] | < 10
COc1cc(-c2cn(C)c(=O)c3cnc(N4CCC4)c(F)c23)cc(OC)c1CN1CC(CN2CCC3(CC2)CN(c2ccc4c(c2)C(=O)N(C2CCC(=O)NC2=O)C4)C3)C1 (stereo not shown) [Compound D221] | < 10
COc1cc(-c2cn(C)c(=O)c3cnc(C4(C)CC4)cc23)cc(OC)c1CN1CC(Oc2ccc3c(c2)C(=O)N(C2CCC(=O)NC2=O)C3=O)C1 (stereo not shown) [Compound D229] | < 10
COc1cc(-c2cn(C)c(=O)c3cnc(N4CCC4)cc23)cc(OC)c1CN1CCC(CN2CCC3(CN(c4ccc5c(c4)CN(C4CCC(=O)NC4=O)C5=O)C3)C(F)(F)C2)CC1 (stereo not shown) [Compound D232] | < 10
COc1cc(-c2cn(C)c(=O)c3cnc(N(C)C)cc23)cc(OC)c1CN1CCC(CN2CCC3(CC2)CN(c2ccc4c(c2)C(=O)N(C2CCC(=O)NC2=O)C4)C3)C(F)(F)C1 (stereo not shown) [Compound D236] | < 10
[2H]C([2H])([2H])n1cc(-c2cc(OC)c(CN3CC(Oc4ccc5c(c4)C(=O)N(C4CCC(=O)NC4=O)C5)C3)c(OC)c2)c2cc(OC)ncc2c1=O (stereo not shown) [Compound D239] | < 10
[2H]C([2H])([2H])n1cc(-c2cc(OC)c(CN3CC(Oc4ccc5c(c4)CN(C4CCC(=O)NC4=O)C5=O)C3)c(OC)c2)c2cc(OC)ncc2c1=O (stereo not shown) [Compound D242] | < 10
COc1cc(-c2cn(C)c(=O)c3cnc(C4CC4)cc23)cc(OC)c1CN1CCC(C(N2CCC3(CC2)CC(Oc2ccc4c(c2)C(=O)N(C2CCC(=O)NC2=O)C4)C3)C(F)(F)F)CC1 (stereo not shown) [Compound D243] | < 10
[2H]C([2H])([2H])n1cc(-c2cc(OC)c(CN3CC(Oc4ccc5c(c4)C(=O)N(C4CCC(=O)NC4=O)C5)C3)c(OC)c2)c2cc(C3CC3)ncc2c1=O (stereo not shown) [Compound D247] | < 10
COc1cc(-c2cn(C)c(=O)c3cnc(N(C)C)cc23)cc(OC)c1CN1CC2(CC(N3CCN(C4CCC(=O)NC4=O)C(=O)C3)C2)C1 (stereo not shown) [Compound D249] | 100 to 1000
COc1cc(-c2cn(C)c(=O)c3cnc(N(C)C)cc23)cc(OC)c1CN1CCC(N2CCN(C3CCC(=O)NC3=O)C(=O)C2)C1 (stereo not shown) [Compound D250] | 100 to 1000
COc1cc(-c2cn(C)c(=O)c3cnc(N(C)C)cc23)cc(OC)c1CN1CCC2(CC1)CC(N1CCN(C3CCC(=O)NC3=O)C(=O)C1)C2 (stereo not shown) [Compound D251] | ≥ 1000
COc1cc(-c2cn(C)c(=O)c3cnc(N(C)C)cc23)cc(OC)c1CN1CC2(CCC(N3CCN(C4CCC(=O)NC4=O)C(=O)C3)CC2)C1 (stereo not shown) [Compound D252] | 10 to 100
COc1cc(-c2cn(C)c(=O)c3cnc(N(C)C)cc23)cc(OC)c1CN1CCC(N2CCN(C3CCC(=O)NC3=O)C(=O)C2)CC1 (stereo not shown) [Compound D253] | ≥ 1000
[2H]C([2H])([2H])n1cc(-c2cc(OC)c(CN3[C@H](C)CN(c4ccc5c(c4)C(=O)N(C4CCC(=O)NC4=O)C5)C[C@H]3C)c(OC)c2)c2cc(OC)ncc2c1=O (stereo partly shown) [Compound D254] | < 10
COc1cc(-c2cn(C)c(=O)c3cnc(N4CCC4)cc23)cc(OC)c1CN1CC(N(C)c2ccc3c(c2)C(=O)N(C2CCC(=O)NC2=O)C3)C1 (stereo not shown) [Compound D256] | < 10
COc1cc(-c2cn(C)c(=O)c3cnc(N(C)C)cc23)cc(OC)c1C1CN(c2ccc3c(c2)C(=O)N(C2CCC(=O)NC2=O)C3)C1 (stereo not shown) [Compound D257] | < 10

Now from value to compound:

DC50 [nM] | SMILES
< 10 | COCC1CN(CCC2CCN(c3ccc4c(c3)C(=O)N(C3CCC(=O)NC3=O)C4=O)CC2)CCN1Cc1c(OC)cc(-c2cn(C)c(=O)c3cnc(N4CCC4)cc23)cc1OC (stereo not shown) [Compound D215]
< 10 | COc1cc(-c2cn(C)c(=O)c3cnc(C4(C)CC4)cc23)cc(OC)c1CN1CCC(CCN2CCN(c3ccc4c(c3)C(=O)N(C3CCC(=O)NC3=O)C4=O)CC2)CC1 (stereo not shown) [Compound D216]
< 10 | COc1cc2c(-c3cc(OC)c(CN4CCN(c5ccc6c(c5)C(=O)N(C5CCC(=O)NC5=O)C6)CC4)c(OC)c3)cn(C)c(=O)c2cn1 (stereo not shown) [Compound D217]
< 10 | COc1cc(-c2cn(C)c(=O)c3cnc(N4CCC4)cc23)cc(OC)c1CN1CCC(CN2CCC3(CC2)CN(c2ccc4c(c2)CN(C2CCC(=O)NC2=O)C4=O)C3)CC1 (stereo not shown) [Compound D218]
< 10 | COc1cc(-c2cn(C)c(=O)c3cnc(C4CC4)cc23)cc(OC)c1CN1CCC2(CC1)CN(c1ccc3c(c1)CN(C1CCC(=O)NC1=O)C3=O)C2 (stereo not shown) [Compound D220]
< 10 | COc1cc(-c2cn(C)c(=O)c3cnc(N4CCC4)cc23)cc(OC)c1CN1[C@H](C)CN(CCC2CCN(c3ccc4c(c3)C(=O)N(C3CCC(=O)NC3=O)C4=O)CC2)C[C@H]1C (stereo partly shown) [Compound D222]
< 10 | [2H]C([2H])([2H])n1cc(-c2cc(OC)c(CN3CCN(CCC4CCN(c5ccc6c(c5)CN(C5CCC(=O)NC5=O)C6=O)CC4)CC3)c(OC)c2)c2cc(N(C)C)ncc2c1=O (stereo not shown) [Compound D223]
< 10 | COc1cc2c(-c3cc(OC)c(CN4CCN(CCC5CCN(c6ccc7c(c6)CN(C6CCC(=O)NC6=O)C7=O)CC5)CC4)c(OC)c3)cn(C)c(=O)c2cn1 (stereo not shown) [Compound D224]
< 10 | COc1cc2c(-c3cc(OC)c(CN4CCN(CCC5CCN(c6ccc7c(c6)C(=O)N(C6CCC(=O)NC6=O)C7)CC5)CC4)c(OC)c3)cn(C)c(=O)c2cn1 (stereo not shown) [Compound D225]
< 10 | COc1cc(-c2cn(C)c(=O)c3cnc(C4CC4)cc23)cc(OC)c1CN1CCC2(CC1)CN(c1ccc3c(c1)C(=O)N(C1CCC(=O)NC1=O)C3)C2 (stereo not shown) [Compound D226]
< 10 | COc1cc(-c2cn(C)c(=O)c3cnc(N4CCC4)cc23)cc(OC)c1CN1CCC(CN2CCC3(CN(c4ccc5c(c4)C(=O)N(C4CCC(=O)NC4=O)C5)C3)C(F)(F)C2)CC1 (stereo not shown) [Compound D227]
< 10 | COc1cc(-c2cn(C)c(=O)c3cnc(C(C)(C)O)cc23)cc(OC)c1CN1CCC(CN2CCC3(CC2)CC(Oc2ccc4c(c2)C(=O)N(C2CCC(=O)NC2=O)C4)C3)CC1 (stereo not shown) [Compound D228]
< 10 | [2H]C([2H])([2H])n1cc(-c2cc(OC)c(CN3CCN(CCC4CCN(c5ccc6c(c5)CN(C5CCC(=O)NC5=O)C6=O)CC4)CC3)c(OC)c2)c2cc(OC)ncc2c1=O (stereo not shown) [Compound D230]
< 10 | [2H]C([2H])([2H])n1cc(-c2cc(OC)c(CN3CCN(CCC4CCN(c5ccc6c(c5)C(=O)N(C5CCC(=O)NC5=O)C6)CC4)CC3)c(OC)c2)c2cc(OC)ncc2c1=O (stereo not shown) [Compound D231]
< 10 | [2H]C([2H])([2H])n1cc(-c2cc(OC)c(CN3CCC4(CC3)CN(c3ccc5c(c3)C(=O)N(C3CCC(=O)NC3=O)C5)C4)c(OC)c2)c2cc(C3CC3)ncc2c1=O (stereo not shown) [Compound D233]
< 10 | [2H]C([2H])([2H])n1cc(-c2cc(OC)c(CN3CCC4(CC3)CN(c3ccc5c(c3)C(=O)N(C3CCC(=O)NC3=O)C5)C4)c(OC)c2)c2cc(OC)ncc2c1=O (stereo not shown) [Compound D234]
< 10 | COc1cc2c(-c3cc(OC)c(CN4CCC(c5ccc6c(c5)CN(C5CCC(=O)NC5=O)C6=O)CC4)c(OC)c3)cn(C)c(=O)c2cn1 (stereo not shown) [Compound D235]
< 10 | COc1cc(-c2cn(C)c(=O)c3cnc(C4(C)CC4)cc23)cc(OC)c1CN1CCC(CCN2CCN(c3ccc4c(c3)C(=O)N(C3CCC(=O)NC3=O)C4)CC2)CC1 (stereo not shown) [Compound D237]
< 10 | COc1cc(-c2cn(C)c(=O)c3cnc(C4(C)CC4)cc23)cc(OC)c1CN1CCC(CCN2CCN(c3ccc4c(c3)CN(C3CCC(=O)NC3=O)C4=O)CC2)CC1 (stereo not shown) [Compound D238]
< 10 | [2H]C([2H])([2H])n1cc(-c2cc(OC)c(CN3CCN(CCC4CCN(c5ccc6c(c5)C(=O)N(C5CCC(=O)NC5=O)C6)CC4)CC3)c(OC)c2)c2cc(N(C)C)ncc2c1=O (stereo not shown) [Compound D240]
< 10 | COc1cc(-c2cn(C)c(=O)c3cnc(N4CC(F)(F)C4)cc23)cc(OC)c1CN1CCC(CCN2CCC3(CC2)CN(c2ccc4c(c2)C(=O)N(C2CCC(=O)NC2=O)C4)C3)CC1 (stereo not shown) [Compound D241]
< 10 | [2H]C1CC(N2Cc3ccc(N4CCC(CCN5CCN(Cc6c(OC)cc(-c7cn(C)c(=O)c8cnc(N9CCC9)cc78)cc6OC)CC5)CC4)cc3C2=O)C(=O)NC1=O (stereo not shown) [Compound D244]
< 10 | [2H]C1CC(N2Cc3cc(N4CCC(CCN5CCN(Cc6c(OC)cc(-c7cn(C)c(=O)c8cnc(N9CCC9)cc78)cc6OC)CC5)CC4)ccc3C2=O)C(=O)NC1=O (stereo not shown) [Compound D245]
< 10 | COc1cc(-c2cn(C)c(=O)c3cnc(N4CC(F)(F)C4)cc23)cc(OC)c1CN1CCN(CCC2CCN(c3ccc4c(c3)CN(C3CCC(=O)NC3=O)C4=O)CC2)CC1 (stereo not shown) [Compound D248]
< 10 | COc1cc(-c2cn(C)c(=O)c3cnc(N(C)C)cc23)cc(OC)c1CN1CCN(c2ccc3c(c2)C(=O)N(C2CCC(=O)NC2=O)C3)CC1(C)C (stereo not shown) [Compound D255]
< 10 | COc1cc2c(-c3cc(OC)c(CN4CCN(CCC5CCN(c6ccc7c(c6)C(=O)N(C6CCC(=O)NC6=O)C7)CC5)CC45CCC5)c(OC)c3)cn(C)c(=O)c2cn1 (stereo not shown) [Compound D258]
